From BindingDB's records for doi:10.3109/14756366.2013.777717 (Tokushima Bunri University, 2014) come the findings set out here.

Each structure is given as a SMILES string. Bounds are passed on as bounds.

The test has as its target T1, Sphingomyelinase C (Bacillus cereus, UniProt P11889).
T1 sequence (P11889 whole entry): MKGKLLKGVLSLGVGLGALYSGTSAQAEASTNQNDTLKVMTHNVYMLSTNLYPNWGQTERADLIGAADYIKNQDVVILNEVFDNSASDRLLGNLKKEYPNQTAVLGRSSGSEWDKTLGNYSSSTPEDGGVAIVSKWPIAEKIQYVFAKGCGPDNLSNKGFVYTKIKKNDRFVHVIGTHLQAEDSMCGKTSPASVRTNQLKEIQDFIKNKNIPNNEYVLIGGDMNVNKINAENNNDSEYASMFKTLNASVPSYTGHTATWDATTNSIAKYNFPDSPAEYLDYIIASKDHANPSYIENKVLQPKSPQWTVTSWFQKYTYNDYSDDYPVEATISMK
Description: Turbidometric Assay. The following applies: pH 7.5; 37 °C. On the procedure:
Briefly, Bc-SMase (50 ng/ml) was treated at 37 °C for 60 min with various compounds that were solubilized in dimethylacetoamide. The reaction mixture was incubated at 37 °C for 5 h with 1.0mM SM from bovine brain (Nacalai, Kyoto, Japan) that was solubilized in a solution containing 20mM Tris-HCl (pH 7.5), 1.0% sodium cholate, and 1mM MgCl2. The turbidity of the reaction mixture was analysed by absorption spectrometer at 620 nm.
The compound `CCCCCCCCCCCCCCC[C@@H](O)[C@H](COCc1cccc(-c2ccccn2)n1)NC(=O)CCCCC` [SMY-584] returned an IC50 above 20 µM.

In turn, `CCCCCCCCCCCCC/C=C/[C@@H](O)[C@H](COCc1cccc(-c2ccccn2)n1)NC(=O)OC(C)(C)C` [SMY-579] yielded an IC50 of 18.3 µM.

On to `CCCCCC(=O)OC[C@H](COCc1cccc(-c2ccccn2)n1)OC(=O)CCCCC` [TOM-2-7], for which the IC50 is above 20 µM.

For `CCCCCCCCCCCCC/C=C/[C@@H](O)[C@H](COCc1cccc(-c2ccccn2)n1)NC(=O)CCCCC` [RY221B-a], it took 1.2 µM to reach half-maximal inhibition (IC50) and the Ki stood at 5.2 µM.

Turning to `CCCCCCCCCCCCC/C=C/[C@@H](Oc1cccc(-c2ccccn2)n1)[C@H](CO)NC(=O)CCCCC` [RY221B-b], the IC50 was above 20 µM.

The compound `CCCCCCCCCCCCC/C=C/[C@@H](O)[C@H](COCc1cccc(-c2ccccn2)c1)NC(=O)CCCCC` [SMY-632] had an IC50 above 20 µM.

`CCCCCCCCCCCCCCCCOC[C@H](COCc1cccc(-c2ccccn2)n1)OCCCCCCCCCCCCCCCC` [TOM-2-37]: the IC50 is above 20 µM.

Compound `CCCCCC(=O)N[C@@H](COCc1cccc(-c2ccccn2)n1)[C@H](O)c1ccccc1` [SMY-540] displayed an IC50 of 0.8 µM and a Ki of 1.3 µM.

With `CCCCCCCCCCCCC/C=C/[C@@H](Oc1cccc(-c2ccccn2)n1)[C@H](COCc1cccc(-c2ccccn2)n1)NC(=O)CCCCC` [SMY-610], it took 3.3 µM to reach half-maximal inhibition (IC50).

Compound `CCCCCC(=O)N[C@@H](COCc1cccc(-c2ccccn2)n1)[C@H](O)/C=C/COc1ccc(C(=O)c2ccccc2)cc1` [SMY-469a] came in with an IC50 above 20 µM.

`CCCCCCCCCCCCC/C=C/[C@@H](O)[C@@H](N)COCc1cccc(-c2ccccn2)n1` [SMY-471] yielded a half-maximal inhibitory concentration (IC50) of 0.9 µM and a Ki of 2.8 µM.

Compound `CCCCCCOC[C@H](COCc1cccc(-c2ccccn2)n1)OCCCCCC` [TOM-2-18] had an IC50 above 20 µM.
